Reference: patent US20150148306A1, “COMPOSITIONS AND METHODS FOR THE TREATMENT OF INFLAMMATION” (priority 2012, published 2015)

Assay: physchem
Assay type: physicochemical
Conditions: water, thermodynamic from solid
Protocol: Measurement of the water solubility of the test compounds is accomplished by using methods well known to those skilled in the art. Specifically, to a weighed amount of the test compound of the example compound Formula I (1-1) distilled water was added in small proportions until a clear solution was obtained. The total volume of the solution is measured. The water solubility is calculated by dividing the weight of the salt, in milligrams (mg), by the volume of the solution, in mL. […] The compound of Formula I (1-1) is therefore, at least 372 times more soluble in water than EPA itself. This is a clear indication of an unexpectedly high degree of bioavailability of the compositions of the invention. Highly water soluble medicinal preparations, when administered orally, result in efficient absorption from the gastrointestinal tract in to systemic circulation. Furthermore, water soluble preparations are especially suitable for parenteral administration.

CC/C=C\C/C=C\C/C=C\C/C=C\C/C=C\CCCC(=O)O [EPA, Eicosapentaenoic Acid]
solubility: < 200 µg/mL
